According to article PMC7718273 (Scientific Reports, 2020):
In brackets after ≈: the same amount, converted by molar mass. Like-named read-outs stand apart in the source and are kept apart here.

How the values were obtained:
[1] = Pharmacokinetic study in mice; type: in vivo, C57BL/6J mice; conditions: mouse, plasma
Experimental: Mice were administered with BR103354 either p.o. […] (2 mg/kg). […] These samples were then centrifuged at 13,000 rpm for 10 min to obtain plasma. […] Samples were analyzed on an API 4500 Qtrap LC‐MS/MS system (Applied Biosystems/MDS Sciex, Toronto, Canada) coupled with Agilent 1200 HPLC (Agilent Technologies, Santa Clara, CA). Plasma concentration–time data were analyzed by non-compartmental method using the nonlinear least-squares regression program WinNonlin (Pharsight, Mountain View, CA).

Thermodynamic solubility = type: physicochemical; conditions: thermodynamic from solid
[2] = Microsomal stability, dog; type: in vitro ADME; conditions: liver microsomes, pH 7.4, dog (D), 0.5 mg/mL, NADPH, read-out: Microsomal stability (% remaining at 60 min)
Experimental: Aliquots were then transferred in duplicate to: (i) a final concentration plate that was immediately quenched with 23.6 ng/mL internal standard (IS, chlorpropamide) in acetonitrile (ACN) or (ii) tubes, which were centrifuged for 5 min at 4℃ (14,000 rpm). The samples were subjected to LC–MS/MS analysis on an AB Sciex 4000 Q Trap hybrid triple quadrupole linear ion-trap MS (AB Sciex, Framingham, MA) coupled to an Agilent 1200 HPLC (Agilent Tech. Santa Clara, CA) with a reverse-phase Kinetex XB-C18 column (2.1 × 100 mm, 2.6 µm; Phenomenex). Mobile phases were comprised of 0.1% formic acid (FA) in water (A) and 0.1 FA in ACN (B). Data analysis was performed using […] (Ver. 1.6.1).

CYP 3A4 = molecular target: T1, CYP 3A4 (Homo sapiens, UniProt P08684); test: CYPs inhibition, human liver microsome, substrate cocktail; type: in vitro ADME; conditions: 5th of 5 values; head prints M; footnote lists CYPs 1A2, 2C9, 2C19, 2D6, 3A4; read-out: CYPs inhibition (IC50, µM) (H/Mk/D/R/M)
T1 construct: from tissue; host or cells: human liver microsomes
T1 sequence (P08684 whole entry): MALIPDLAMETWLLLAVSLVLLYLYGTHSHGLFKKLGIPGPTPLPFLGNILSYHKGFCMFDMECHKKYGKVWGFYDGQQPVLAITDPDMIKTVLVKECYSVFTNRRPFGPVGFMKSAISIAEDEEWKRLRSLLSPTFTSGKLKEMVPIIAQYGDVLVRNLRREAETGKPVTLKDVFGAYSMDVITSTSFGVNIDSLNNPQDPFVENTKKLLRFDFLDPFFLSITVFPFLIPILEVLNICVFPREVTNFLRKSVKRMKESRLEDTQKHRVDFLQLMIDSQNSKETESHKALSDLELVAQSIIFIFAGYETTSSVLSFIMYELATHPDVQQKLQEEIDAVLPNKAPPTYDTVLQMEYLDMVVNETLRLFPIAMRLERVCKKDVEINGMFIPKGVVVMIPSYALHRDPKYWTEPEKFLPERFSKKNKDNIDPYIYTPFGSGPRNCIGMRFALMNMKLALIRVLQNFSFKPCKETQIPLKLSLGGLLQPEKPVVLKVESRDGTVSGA
Source text: (§1) Metabolites of the substrate probes were simultaneously analyzed by multiple-reaction monitoring using routine LC-MS/MS.

CYP 1A2 = molecular target: T2, CYP 1A2 (Homo sapiens, UniProt P05177); test: as above; type: in vitro ADME; conditions: 1st of 5 values; head prints H; footnote lists CYPs 1A2, 2C9, 2C19, 2D6, 3A4; read-out: CYPs inhibition (IC50, µM) (H/Mk/D/R/M)
T2 construct: from tissue; host or cells: human liver microsomes
T2 sequence (P05177 whole entry): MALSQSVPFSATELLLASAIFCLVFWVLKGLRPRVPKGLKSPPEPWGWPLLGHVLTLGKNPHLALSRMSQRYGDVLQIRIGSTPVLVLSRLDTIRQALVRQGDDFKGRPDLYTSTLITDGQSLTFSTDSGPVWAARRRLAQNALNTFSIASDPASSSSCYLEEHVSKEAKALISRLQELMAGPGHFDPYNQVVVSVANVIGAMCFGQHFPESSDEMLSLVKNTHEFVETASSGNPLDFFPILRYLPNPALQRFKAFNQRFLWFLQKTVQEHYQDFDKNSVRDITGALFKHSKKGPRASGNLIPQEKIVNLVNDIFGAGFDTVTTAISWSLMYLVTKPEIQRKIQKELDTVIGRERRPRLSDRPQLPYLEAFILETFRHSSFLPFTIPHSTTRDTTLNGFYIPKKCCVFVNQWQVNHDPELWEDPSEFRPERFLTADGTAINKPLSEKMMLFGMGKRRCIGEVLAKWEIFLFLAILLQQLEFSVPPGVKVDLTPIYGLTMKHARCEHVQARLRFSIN
Source text: as §1

CYP 2C19 = molecular target: T3, CYP 2C19 (Homo sapiens, UniProt P33261); test: as above; type: in vitro ADME; conditions: 3rd of 5 values; head prints D; footnote lists CYPs 1A2, 2C9, 2C19, 2D6, 3A4; read-out: CYPs inhibition (IC50, µM) (H/Mk/D/R/M)
T3 construct: from tissue; host or cells: human liver microsomes
T3 sequence (P33261 whole entry): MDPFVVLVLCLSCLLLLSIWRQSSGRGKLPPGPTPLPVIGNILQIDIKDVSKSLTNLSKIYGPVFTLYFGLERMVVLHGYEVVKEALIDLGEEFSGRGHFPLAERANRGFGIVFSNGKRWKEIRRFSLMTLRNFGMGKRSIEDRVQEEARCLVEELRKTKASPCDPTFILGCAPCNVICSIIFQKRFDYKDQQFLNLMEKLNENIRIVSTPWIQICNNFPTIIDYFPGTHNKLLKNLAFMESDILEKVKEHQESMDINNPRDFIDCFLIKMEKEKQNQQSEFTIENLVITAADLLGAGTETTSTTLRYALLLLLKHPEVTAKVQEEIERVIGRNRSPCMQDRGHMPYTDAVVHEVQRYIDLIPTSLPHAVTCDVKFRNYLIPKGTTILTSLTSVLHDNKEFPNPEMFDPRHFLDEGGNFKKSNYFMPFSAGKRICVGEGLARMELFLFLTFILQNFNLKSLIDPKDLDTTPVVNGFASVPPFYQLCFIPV
Source text: as §1

CYP 2D6 = molecular target: T4, CYP 2D6 (Homo sapiens, UniProt P10635); test: as above; type: in vitro ADME; conditions: 4th of 5 values; head prints R; footnote lists CYPs 1A2, 2C9, 2C19, 2D6, 3A4; read-out: CYPs inhibition (IC50, µM) (H/Mk/D/R/M)
T4 construct: from tissue; host or cells: human liver microsomes
T4 sequence (P10635 whole entry): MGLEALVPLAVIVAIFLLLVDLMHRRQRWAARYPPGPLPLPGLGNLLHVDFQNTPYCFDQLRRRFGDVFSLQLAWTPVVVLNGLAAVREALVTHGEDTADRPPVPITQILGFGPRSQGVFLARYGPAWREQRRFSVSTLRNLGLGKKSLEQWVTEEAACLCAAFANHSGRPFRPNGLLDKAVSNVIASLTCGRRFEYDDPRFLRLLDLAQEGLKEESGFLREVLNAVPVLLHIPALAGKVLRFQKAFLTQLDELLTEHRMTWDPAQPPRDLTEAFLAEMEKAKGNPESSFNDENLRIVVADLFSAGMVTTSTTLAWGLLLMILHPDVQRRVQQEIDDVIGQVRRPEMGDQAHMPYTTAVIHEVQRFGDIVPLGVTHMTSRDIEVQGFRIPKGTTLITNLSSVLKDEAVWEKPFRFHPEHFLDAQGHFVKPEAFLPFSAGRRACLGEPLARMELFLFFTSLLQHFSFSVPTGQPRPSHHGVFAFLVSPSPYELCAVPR
Source text: as §1

CYP 2C9 = molecular target: T5, CYP 2C9 (Homo sapiens, UniProt P11712); test: as above; type: in vitro ADME; conditions: 2nd of 5 values; head prints Mk; footnote lists CYPs 1A2, 2C9, 2C19, 2D6, 3A4; read-out: CYPs inhibition (IC50, µM) (H/Mk/D/R/M)
T5 construct: from tissue; host or cells: human liver microsomes
T5 sequence (P11712 whole entry): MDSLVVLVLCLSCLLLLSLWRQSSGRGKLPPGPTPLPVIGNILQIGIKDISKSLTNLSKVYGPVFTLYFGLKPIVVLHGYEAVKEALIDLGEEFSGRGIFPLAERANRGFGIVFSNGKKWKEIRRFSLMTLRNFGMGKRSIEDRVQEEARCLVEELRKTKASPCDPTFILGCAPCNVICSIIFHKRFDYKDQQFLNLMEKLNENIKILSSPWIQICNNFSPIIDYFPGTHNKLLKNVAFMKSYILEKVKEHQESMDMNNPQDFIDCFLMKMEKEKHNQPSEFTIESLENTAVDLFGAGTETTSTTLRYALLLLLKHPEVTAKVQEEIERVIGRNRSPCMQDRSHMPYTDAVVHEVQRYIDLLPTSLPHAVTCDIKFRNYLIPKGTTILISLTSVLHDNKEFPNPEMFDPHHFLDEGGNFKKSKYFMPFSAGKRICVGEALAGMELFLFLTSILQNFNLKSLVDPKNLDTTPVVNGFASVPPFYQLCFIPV
Source text: as §1

serum FAP = molecular target: T6, serum FAP (Homo sapiens, UniProt Q12884); test: IC50 on serum FAP, humans; type: biochemical
T6 construct: also found in human serum as a soluble form lacking the transmembrane domain; from tissue; host or cells: human serum
T6 sequence (Q12884 24-760 limits assumed): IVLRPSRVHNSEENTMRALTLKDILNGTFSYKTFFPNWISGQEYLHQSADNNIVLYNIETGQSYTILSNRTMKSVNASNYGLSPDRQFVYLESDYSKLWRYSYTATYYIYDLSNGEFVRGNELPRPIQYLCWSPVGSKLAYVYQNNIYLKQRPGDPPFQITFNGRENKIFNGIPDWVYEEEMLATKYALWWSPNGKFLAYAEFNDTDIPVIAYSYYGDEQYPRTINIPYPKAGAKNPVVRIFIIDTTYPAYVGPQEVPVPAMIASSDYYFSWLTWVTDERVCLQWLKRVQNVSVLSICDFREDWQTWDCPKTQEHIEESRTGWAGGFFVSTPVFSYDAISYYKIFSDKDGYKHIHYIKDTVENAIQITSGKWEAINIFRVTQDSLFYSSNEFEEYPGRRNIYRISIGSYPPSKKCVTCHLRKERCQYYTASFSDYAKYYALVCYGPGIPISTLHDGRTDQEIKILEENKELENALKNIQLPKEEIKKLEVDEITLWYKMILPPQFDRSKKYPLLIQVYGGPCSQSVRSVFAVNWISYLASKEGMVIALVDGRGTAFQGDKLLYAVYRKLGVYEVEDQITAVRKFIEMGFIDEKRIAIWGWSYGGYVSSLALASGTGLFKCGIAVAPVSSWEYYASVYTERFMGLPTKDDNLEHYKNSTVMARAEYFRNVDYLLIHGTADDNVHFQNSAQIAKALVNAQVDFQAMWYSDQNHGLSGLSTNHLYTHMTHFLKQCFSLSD

[3] = male, C57BL/6J, po, p.o. 1 mg/kg
[4] = male, C57BL/6J, po, p.o. 5 mg/kg
[5] = male, C57BL/6J, po, p.o. 10 mg/kg
[6] = male, C57BL/6J, po, p.o. 100 mg/kg
[7] = male, C57BL/6J, po, p.o. 200 mg/kg

## N#Cc1ccc(Cc2nc(C(=O)NCC(=O)N3CC(F)(F)C[C@H]3C#N)cs2)cc1 [BR103354, (S)-N-(2-(2-cyano-4,4-difluoropyrrolidin-1-yl)-2-oxoethyl)-2-(4-cyanobenzyl)thiazole-4-carboxamide]
[1]; male, C57BL/6J, po, mice, all doses, read-out: half-life (T1/2), range over doses
  half-life: 1.2 to 4 h
[1]; [3]
  AUC(0-t): 3700 ng·h/mL
  Cmax: 2300 ng/mL
  Tmax: 0.5 h
[1]; male, C57BL/6J, po, p.o. 1 mg/kg, read-out: T1/2 (converted)
  half-life: 1.2 h
[1]; [4]
  AUC(0-t): 10800 ng·h/mL
  Cmax: 7200 ng/mL
  Tmax: 0.5 h
[1]; male, C57BL/6J, po, p.o. 5 mg/kg, read-out: T1/2 (converted)
  half-life: 1.1 h
[1]; [5]
  AUC(0-t): 41100 ng·h/mL
  Cmax: 19200 ng/mL
  Tmax: 0.5 h
[1]; male, C57BL/6J, po, p.o. 10 mg/kg, read-out: T1/2 (converted)
  half-life: 1.2 h
[1]; [6]
  AUC(0-t): 17000 ng·h/mL
  Cmax: 66000 ng/mL
  Tmax: 1 h
[1]; male, C57BL/6J, po, p.o. 100 mg/kg, read-out: T1/2 (converted)
  half-life: 4 h
[1]; [7]
  AUC(0-t): 29200 ng·h/mL
  Cmax: 122000 ng/mL
  Tmax: 1 h
[1]; male, C57BL/6J, po, p.o. 200 mg/kg, read-out: T1/2 (converted)
  half-life: 3.8 h
[1]; male, C57BL/6J, oral, i.v. 2 mg/kg
  bioavailability: 48.4%
[1]; summary in discussion, species and dose not stated
  Tmax: 1 h
[1]; summary in discussion, species and dose not stated, read-out: T1/2 (converted)
  half-life: 1.2 h
Thermodynamic solubility; aqueous buffer, pH 3.0
  solubility thermodynamic: 165 µg/mL (≈ 397 µM)
Thermodynamic solubility; aqueous buffer, pH 7.0
  solubility thermodynamic: 141 µg/mL (≈ 339 µM)
Thermodynamic solubility; simulated gastric fluid, pH 1.0
  solubility thermodynamic: 197 µg/mL (≈ 474 µM)
[2]
  remaining at 1 h, 1 µM: > 100%
CYP 3A4
  IC50: > 50 µM
CYP 1A2
  IC50: > 50 µM
CYP 2C19
  IC50: > 50 µM
CYP 2D6
  IC50: > 50 µM
CYP 2C9
  IC50: > 50 µM
Serum FAP
  IC50: 29 nM
